According to PMC8931250, “A SURF4-to-proteoglycan relay mechanism that mediates the sorting and secretion of a tagged variant of sonic hedgehog” (Proceedings of the National Academy of Sciences of the …, 2022):

Columns and labels:
SURF4-Myc = assay: Crosslinking co-IP of SURF4-Myc with HA-tagged cargo; assay type: binding, human; details: HEK293T, 2 mM DSP
Procedure: (§1) Immunoprecipitation was performed as described ([27]). Purification of GST-tagged ShhN^25-49 and GST-tagged SURF4^49-60 was performed as described previously ([54]). GST pull down assays were performed as described previously ([54]). Peptide binding assay was performed as described previously ([27]). […]
Immunoprecipitation, protein purification, and binding assay
Immunoprecipitation of HA-tagged ShhN was performed by incubating 200 µl of 0.5 mg/ml cell lysates from HEK293T cells transfected with ShhN- HA in HKT buffer with 10 μl of compact anti-HA agarose affinity beads with mixing at 4 °C overnight. After incubation, the beads were washed 4 times with 1 ml of HK buffer (100 mM KCl, 20 mM Hepes, pH 7.2), and the bound material was analyzed by Coomassie blue staining and immunoblotting.
(§2) Binding assays between Myc- tagged SURF4 or Myc-tagged SURF4ED-AA and HA-tagged ShhN or ShhN∆33- 39 were performed by treating HEK293T cells co -transfected with plasmids encoding the indicated proteins in 1 × PBS containing 2 mM dithiobis[succinimidylpropionate] […] After incubation, the beads were washed 4 times with 1 ml of HK buffer (100 mM KCl, 20 mM Hepes, pH 7.2), and the bound material was analyzed by immunoblotting. […]
(§3) After incubation, the beads were washed three times with 500 µ l of HKT buffer and twice with 500 µ l of HK buffer, and the bound material was analyzed by immunoblotting. […]

GST-SURF4^49-60 = target: T1, GST-SURF4^49-60 (Homo sapiens, UniProt O15260); assay: Peptide bead pull down with purified GST-SURF4^49-60 as prey; assay type: binding; details: normalized to CW peptides; n = 3, mean ± SD (values only in Fig. 3O); anti-GST immunoblot; HK buffer pH 7.2, 4 °C
T1 construct: SURF4 (49-60) in the same buffer was in the calorimetric cell; made in house; host or cells: Escherichia coli
Procedure: as §1
in cold KOAc buffer (110 mM KOAc, 2 mM Mg(OAc)2, 20 mM Hepes, pH 7.2). Then cells were permeabilized by 0.03 mg/ml digitonin in KOAc buffer for 6 min at room temperature. The permeabilized cells were washed with cold KOAc buffer. […]
as §2, §3
(§4) reaction mixture for 1 h at 4 °C. The beads were washed four times with 500 µ l of HK buffer and analyzed […]
Label-free quantitative mass spectrometry […]

[1] = tested on: packaging of ShhN-HA into transport vesicles; assay: In vitro vesicle formation assay, packaging of ShhN-HA; assay type: cell-based
Procedure: (§5) To analyze whether the CW motif is important for the packaging of ShhN into COPII vesicles, we reconstituted vesicular release of ShhN in HEK293T cells (Fig. 1T). HEK293T cells transfected with 3xHA-tagged ShhN (ShhN-HA) were permeabilized by digitonin. After permeabilization, the semi-intact cells were washed with buffer to remove endogenous cytosolic proteins. Semi-intact cells were then incubated at 30 °C with rat liver cytosol (RLC), GTP, and an ATP regeneration system (ATPrS) in the presence or absence of a GTP hydrolysis defective mutant form of Sar1A, Sar1A (H79G). The vesicles released were then isolated by centrifugation and analyzed by immunoblotting (Fig. 1T). […] Deleting residues 33 to 49 (Fig. 1V) or deleting the CW motif (residues 33 to 39) in ShhN caused a significant reduction in the efficiency of packaging of ShhN into vesicles (Fig. 1W and quantification in Fig. 1X), while the abundance of ERGIC53 in transport vesicles was unchanged (Fig. 1Y). […]
as §4
(§6) Label-free quantitative mass spectrometry
(§7) Mass spectrometry was performed to identify the proteins involved in Shh secretion. […] Finally, the resulted peptides were analyzed by Mass Spectrometer. The tandem mass spectra were then subject to protein identification and label-free quantification by Proteome Discoverer. […]

[2] = tested on: COPII-dependent ER export; details: cited from earlier work
Procedure: To analyze whether the CW motif is important for the packaging of ShhN into COPII vesicles, we reconstituted vesicular release of ShhN in HEK293T cells (Fig. 1T). HEK293T cells transfected with 3xHA-tagged ShhN (ShhN-HA) were permeabilized by digitonin. After permeabilization, the semi-intact cells were washed with buffer to remove endogenous cytosolic proteins. Semi-intact cells were then incubated at 30 °C with rat liver cytosol (RLC), GTP, and an ATP regeneration system (ATPrS) in the presence or absence of a GTP hydrolysis defective mutant form of Sar1A, Sar1A (H79G). The vesicles released ...

[3] = tested on: packaging of ERGIC53 into transport vesicles; assay: In vitro vesicle formation assay, packaging of ERGIC53; assay type: cell-based; details: semi-intact HEK293T cells, rat liver cytosol, GTP, ATPrS, 0.5 µg Sar1A (H79G)
Procedure: as §5, §4, §6, §7

ShhN-SURF4 interaction = assay: Heparin competition in GST pull down of SURF4-HA by ShhN^25-49-GST; assay type: binding, human; details: n = 3
Procedure: as §1
Immunoprecipitation, protein purification, and binding assay […]
After incubation, the beads were washed 4 times with 1 ml of HK buffer (100 mM KCl, 20 mM Hepes, pH 7.2), and the bound material was analyzed by Coomassie blue staining and immunoblotting.
Binding assays between Myc- tagged SURF4 or Myc-tagged SURF4ED-AA and HA-tagged ShhN or ShhN∆33- 39 were performed by treating HEK293T cells co -transfected with plasmids encoding the indicated proteins in 1 × PBS containing 2 mM dithiobis[succinimidylpropionate] (DSP) and 2 mM CaCl2 at room temperature for 30 min, and then quenched with 25 mM Tris-HCl, pH 7.5. 200 µl of 0.5 mg/ml cell lysates were incubated with 10 μl of compact anti-HA agarose affinity beads with mixing at 4 °C overnight. After incubation, the beads were washed 4 times with 1 ml of HK buffer (100 mM KCl, 20 mM Hepes, pH 7.2), and the bound material was analyzed by immunoblotting. […]
as §3

CW peptides (KRRHPKKC) = target: T2, CW peptides (KRRHPKKC) ( (human or mouse cDNA cloned)); assay: ITC; isothermal titration calorimetry of CW peptides with GST-SURF4^49-60 or GST; details: both partners purified
T2 construct: Cardin-Weintraub (CW) motif of Shh, residues 33 to 39 in ShhN; C-terminal cysteine printed after the KRRHPKK motif; In the pull-downs the peptide was covalently linked to thiopyridone Sepharose 6B; also called peptides corresponding to the CW motif; source: synthetic peptide
T2 peptide: KRRHPKKC

## ShhN-HA: 3xHA-tagged N-terminal fragment of Shh without the cholesterol modification
SURF4-Myc; n = 3
  percentage of SURF4-Myc bound to ShhN-HA vs CW motif-depleted ShhN: significantly higher than the percentage of SURF4-Myc that bound to ShhN^Δ33-39-HA
SURF4-Myc; SURF4-Myc, HA beads
  interaction with SURF4 vs IGF2: more robustly than IGF2

## AAAHPAAC [CW(KR-AA), alanine substituted mutant (AAAHPAAC)]
GST-SURF4^49-60
  level of GST-SURF4^49-60 bound relative to CW peptides: bound more efficiently to the wild-type CW sequence than an alanine substituted mutant

## VRRFRYPERPC [peptides corresponding to the first intracellular loop of Frizzled6 (…)]
GST-SURF4^49-60
  level of GST-SURF4^49-60 bound relative to CW peptides: significantly lower than that bound to the CW peptides

## Sar1A (H79G): GTP hydrolysis defective mutant form of Sar1A
[1]; HEK293Trex cells, SAR1A (H79G)
  efficiency of packaging of ShhN-HA into transport vesicles: reduced the efficiency of packaging
[1]; semi-intact HEK293T cells, rat liver cytosol, GTP, ATPrS, 0.5 µg Sar1A (H79G)
  efficiency of packaging of ShhN-HA into transport vesicles: greatly reduced
[2]
  COPII-dependent ER export: inhibits COPII-dependent ER export
  membrane association of SEC23A/B: enhances membrane association of SEC23A/B
  vesicular capture of SEC22B and ERGIC53: abolishes the vesicular capture
  vesicular release of TGN46: does not affect the vesicular release
[3]
  efficiency of packaging of ERGIC53 into transport vesicles: greatly reduced

## heparin
ShhN-SURF4 interaction; GST pull down with ShhN^25-49-GST and SURF4-HA lysate
  inhibition of the interaction between ShhN and SURF4: inhibited the interaction between ShhN and SURF4 in a concentration-dependent manner
ShhN-SURF4 interaction; pH 6.0
  inhibition of the ShhN-SURF4 interaction at pH 6.0: still inhibits the ShhN-SURF4 interaction

B1: GST-SURF4^49-60 (domain or fragment, human, UniProt O15260 49-60, looked up)
chain: SEQRDYIDTTWN
notes: first luminal loop of SURF4, amino acids 49 to 60; also called GST-tagged SURF4^49-60; source: E. coli, purified
CW peptides (KRRHPKKC)
  Kd: 2350 ± 90 nM
